Laboratory results taken from PubChem BioAssay (NCI).
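These data come from cells grown in 96-well plates and exposed to compound for 48 hours at five concentrations. Here, GI50 denotes the concentration required for 50% inhibition of growth. TGI denotes the concentration required for complete inhibition of growth.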

What was measured:
Assay in all cases: NCI anticancer screen, dose series, 48 h
786-0 renal = system: 786-0 renal
A498 renal = system: A498 renal
A549 NSCLC = system: A549 NSCLC
ACHN renal = system: ACHN renal
BT-549 breast = system: BT-549 breast
CAKI-1 renal = system: CAKI-1 renal
CCRF-CEM leukemia = system: CCRF-CEM leukemia
COLO 205 colon = system: COLO 205 colon
DU-145 prostate = system: DU-145 prostate
EKVX NSCLC = system: EKVX NSCLC
HCC-2998 colon = system: HCC-2998 colon
HCT-116 colon = system: HCT-116 colon
HCT-15 colon = system: HCT-15 colon
HL-60(TB) leukemia = system: HL-60(TB) leukemia
HOP-62 NSCLC = system: HOP-62 NSCLC
HOP-92 NSCLC = system: HOP-92 NSCLC
HS 578T breast = system: HS 578T breast
HT29 colon = system: HT29 colon
IGROV1 ovarian = system: IGROV1 ovarian
K-562 leukemia = system: K-562 leukemia
KM12 colon = system: KM12 colon
LOX IMVI melanoma = system: LOX IMVI melanoma
M14 melanoma = system: M14 melanoma
MALME-3M melanoma = system: MALME-3M melanoma
MCF7 breast = system: MCF7 breast
MDA-MB-231 breast = system: MDA-MB-231 breast
MDA-MB-435 = system: MDA-MB-435
MOLT-4 leukemia = system: MOLT-4 leukemia
NCI-H226 lung = system: NCI-H226 lung
NCI-H23 lung = system: NCI-H23 lung
NCI-H460 lung = system: NCI-H460 lung
NCI-H522 lung = system: NCI-H522 lung
NCI/ADR-RES ovarian = system: NCI/ADR-RES ovarian
OVCAR-3 ovarian = system: OVCAR-3 ovarian
OVCAR-4 ovarian = system: OVCAR-4 ovarian
OVCAR-5 ovarian = system: OVCAR-5 ovarian
OVCAR-8 ovarian = system: OVCAR-8 ovarian
PC-3 prostate = system: PC-3 prostate
RPMI-8226 leukemia = system: RPMI-8226 leukemia
RXF 393 renal = system: RXF 393 renal
SF-268 CNS = system: SF-268 CNS
SF-295 CNS = system: SF-295 CNS
SF-539 CNS = system: SF-539 CNS
SK-MEL-2 melanoma = system: SK-MEL-2 melanoma
SK-MEL-28 melanoma = system: SK-MEL-28 melanoma
SK-MEL-5 melanoma = system: SK-MEL-5 melanoma
SK-OV-3 ovarian = system: SK-OV-3 ovarian
SN12C renal = system: SN12C renal
SNB-19 CNS = system: SNB-19 CNS
SNB-75 CNS = system: SNB-75 CNS
SR leukemia = system: SR leukemia
SW-620 colon = system: SW-620 colon
T-47D breast = system: T-47D breast
TK-10 renal = system: TK-10 renal
U251 CNS = system: U251 CNS
UACC-257 melanoma = system: UACC-257 melanoma
UACC-62 melanoma = system: UACC-62 melanoma
UO-31 renal = system: UO-31 renal

**Q.** Which GI50 (786-0 renal) does the source give for `CCN(CC)c1ccc(/C=N/NC(=O)c2ccc(NS(C)(=O)=O)cc2)cc1` here?
**A.** 714 nM

**Q.** And the TGI (786-0 renal)?
**A.** 6480 nM

**Q.** What about the GI50 (A498 renal) of the same compound?
**A.** 6090 nM

**Q.** And the TGI (A498 renal)?
**A.** 41300 nM

**Q.** And the GI50 (A549 NSCLC)?
**A.** 2430 nM

**Q.** And the TGI (A549 NSCLC)?
**A.** > 100000 nM

**Q.** And the GI50 (ACHN renal)?
**A.** 656 nM

**Q.** And the TGI (ACHN renal)?
**A.** 57100 nM

**Q.** What about the GI50 (BT-549 breast) of the same compound?
**A.** 847 nM

**Q.** What about the TGI (BT-549 breast) of the same compound?
**A.** 11200 nM

**Q.** What about the GI50 (CAKI-1 renal) of the same compound?
**A.** 554 nM

**Q.** What about the TGI (CAKI-1 renal) of the same compound?
**A.** > 47000 nM

**Q.** What about the GI50 (CCRF-CEM leukemia) of the same compound?
**A.** 301 nM

**Q.** What about the TGI (CCRF-CEM leukemia) of the same compound?
**A.** > 100000 nM

**Q.** What about the GI50 (COLO 205 colon) of the same compound?
**A.** 643 nM

**Q.** What about the TGI (COLO 205 colon) of the same compound?
**A.** 25900 nM

**Q.** What about the GI50 (DU-145 prostate) of the same compound?
**A.** 933 nM

**Q.** And the TGI (DU-145 prostate)?
**A.** > 100000 nM

**Q.** What about the GI50 (EKVX NSCLC) of the same compound?
**A.** 1010 nM

**Q.** And the TGI (EKVX NSCLC)?
**A.** > 77000 nM

**Q.** What about the GI50 (HCC-2998 colon) of the same compound?
**A.** 704 nM

**Q.** And the TGI (HCC-2998 colon)?
**A.** > 76800 nM

**Q.** And the GI50 (HCT-116 colon)?
**A.** 352 nM

**Q.** What about the TGI (HCT-116 colon) of the same compound?
**A.** > 87700 nM

**Q.** And the GI50 (HCT-15 colon)?
**A.** 431 nM

**Q.** And the TGI (HCT-15 colon)?
**A.** 49100 nM

**Q.** What about the GI50 (HL-60(TB) leukemia) of the same compound?
**A.** 294 nM

**Q.** And the GI50 (HOP-62 NSCLC)?
**A.** 415 nM

**Q.** And the TGI (HOP-62 NSCLC)?
**A.** 17800 nM

**Q.** What about the GI50 (HOP-92 NSCLC) of the same compound?
**A.** 457 nM

**Q.** What about the TGI (HOP-92 NSCLC) of the same compound?
**A.** 40300 nM

**Q.** And the GI50 (HS 578T breast)?
**A.** 2740 nM

**Q.** And the TGI (HS 578T breast)?
**A.** 58900 nM

**Q.** And the GI50 (HT29 colon)?
**A.** 556 nM

**Q.** What about the TGI (HT29 colon) of the same compound?
**A.** 18700 nM

**Q.** And the GI50 (IGROV1 ovarian)?
**A.** 716 nM

**Q.** And the TGI (IGROV1 ovarian)?
**A.** > 100000 nM

**Q.** And the GI50 (K-562 leukemia)?
**A.** 595 nM

**Q.** What about the TGI (K-562 leukemia) of the same compound?
**A.** > 100000 nM

**Q.** What about the GI50 (KM12 colon) of the same compound?
**A.** 907 nM

**Q.** And the TGI (KM12 colon)?
**A.** > 66800 nM

**Q.** And the GI50 (LOX IMVI melanoma)?
**A.** 301 nM

**Q.** What about the TGI (LOX IMVI melanoma) of the same compound?
**A.** 10900 nM

**Q.** What about the GI50 (M14 melanoma) of the same compound?
**A.** 463 nM

**Q.** What about the TGI (M14 melanoma) of the same compound?
**A.** 3420 nM

**Q.** And the GI50 (MALME-3M melanoma)?
**A.** 1170 nM

**Q.** And the TGI (MALME-3M melanoma)?
**A.** 15300 nM

**Q.** What about the GI50 (MCF7 breast) of the same compound?
**A.** 598 nM

**Q.** And the TGI (MCF7 breast)?
**A.** > 100000 nM

**Q.** And the GI50 (MDA-MB-231 breast)?
**A.** 546 nM

**Q.** What about the TGI (MDA-MB-231 breast) of the same compound?
**A.** > 72100 nM

**Q.** And the GI50 (MDA-MB-435)?
**A.** 1560 nM

**Q.** And the TGI (MDA-MB-435)?
**A.** > 100000 nM

**Q.** What about the GI50 (MOLT-4 leukemia) of the same compound?
**A.** 433 nM

**Q.** What about the TGI (MOLT-4 leukemia) of the same compound?
**A.** > 41300 nM

**Q.** And the GI50 (NCI-H226 lung)?
**A.** 1210 nM

**Q.** And the TGI (NCI-H226 lung)?
**A.** 38000 nM

**Q.** And the GI50 (NCI-H23 lung)?
**A.** 1890 nM

**Q.** What about the TGI (NCI-H23 lung) of the same compound?
**A.** > 100000 nM

**Q.** What about the GI50 (NCI-H460 lung) of the same compound?
**A.** 564 nM

**Q.** And the TGI (NCI-H460 lung)?
**A.** 11800 nM

**Q.** And the GI50 (NCI-H522 lung)?
**A.** 418 nM

**Q.** And the TGI (NCI-H522 lung)?
**A.** 15100 nM

**Q.** What about the GI50 (NCI/ADR-RES ovarian) of the same compound?
**A.** 3860 nM

**Q.** What about the TGI (NCI/ADR-RES ovarian) of the same compound?
**A.** > 100000 nM

**Q.** What about the GI50 (OVCAR-3 ovarian) of the same compound?
**A.** 231 nM

**Q.** What about the TGI (OVCAR-3 ovarian) of the same compound?
**A.** 20100 nM

**Q.** And the GI50 (OVCAR-4 ovarian)?
**A.** 409 nM

**Q.** And the TGI (OVCAR-4 ovarian)?
**A.** > 100000 nM

**Q.** What about the GI50 (OVCAR-5 ovarian) of the same compound?
**A.** 2320 nM

**Q.** And the TGI (OVCAR-5 ovarian)?
**A.** > 100000 nM

**Q.** What about the GI50 (OVCAR-8 ovarian) of the same compound?
**A.** 445 nM

**Q.** What about the TGI (OVCAR-8 ovarian) of the same compound?
**A.** > 100000 nM

**Q.** And the GI50 (PC-3 prostate)?
**A.** 561 nM

**Q.** And the TGI (PC-3 prostate)?
**A.** > 100000 nM

**Q.** And the GI50 (RPMI-8226 leukemia)?
**A.** 4280 nM

**Q.** What about the TGI (RPMI-8226 leukemia) of the same compound?
**A.** > 60700 nM

**Q.** And the GI50 (RXF 393 renal)?
**A.** 1180 nM

**Q.** And the TGI (RXF 393 renal)?
**A.** 4780 nM

**Q.** What about the GI50 (SF-268 CNS) of the same compound?
**A.** 383 nM

**Q.** And the TGI (SF-268 CNS)?
**A.** > 49000 nM

**Q.** What about the GI50 (SF-295 CNS) of the same compound?
**A.** 828 nM

**Q.** And the TGI (SF-295 CNS)?
**A.** 20700 nM

**Q.** And the GI50 (SF-539 CNS)?
**A.** 571 nM

**Q.** What about the TGI (SF-539 CNS) of the same compound?
**A.** 11300 nM

**Q.** What about the GI50 (SK-MEL-2 melanoma) of the same compound?
**A.** 4330 nM

**Q.** What about the TGI (SK-MEL-2 melanoma) of the same compound?
**A.** 24600 nM

**Q.** And the GI50 (SK-MEL-28 melanoma)?
**A.** 498 nM

**Q.** And the TGI (SK-MEL-28 melanoma)?
**A.** > 78200 nM

**Q.** What about the GI50 (SK-MEL-5 melanoma) of the same compound?
**A.** 1670 nM

**Q.** What about the TGI (SK-MEL-5 melanoma) of the same compound?
**A.** > 46500 nM

**Q.** And the GI50 (SK-OV-3 ovarian)?
**A.** 1050 nM

**Q.** And the TGI (SK-OV-3 ovarian)?
**A.** 27700 nM

**Q.** What about the GI50 (SN12C renal) of the same compound?
**A.** 978 nM

**Q.** What about the TGI (SN12C renal) of the same compound?
**A.** > 100000 nM

**Q.** What about the GI50 (SNB-19 CNS) of the same compound?
**A.** 1600 nM

**Q.** What about the TGI (SNB-19 CNS) of the same compound?
**A.** > 79600 nM

**Q.** What about the GI50 (SNB-75 CNS) of the same compound?
**A.** 434 nM

**Q.** What about the TGI (SNB-75 CNS) of the same compound?
**A.** 16900 nM

**Q.** And the GI50 (SR leukemia)?
**A.** 170 nM

**Q.** What about the TGI (SR leukemia) of the same compound?
**A.** > 100000 nM

**Q.** And the GI50 (SW-620 colon)?
**A.** 693 nM

**Q.** What about the TGI (SW-620 colon) of the same compound?
**A.** > 100000 nM

**Q.** What about the GI50 (T-47D breast) of the same compound?
**A.** 1220 nM

**Q.** And the TGI (T-47D breast)?
**A.** > 72100 nM

**Q.** What about the GI50 (TK-10 renal) of the same compound?
**A.** 1740 nM

**Q.** And the TGI (TK-10 renal)?
**A.** > 92600 nM

**Q.** What about the GI50 (U251 CNS) of the same compound?
**A.** 236 nM

**Q.** And the TGI (U251 CNS)?
**A.** > 44500 nM

**Q.** What about the GI50 (UACC-257 melanoma) of the same compound?
**A.** 1100 nM

**Q.** And the TGI (UACC-257 melanoma)?
**A.** 21200 nM

**Q.** And the GI50 (UACC-62 melanoma)?
**A.** 526 nM

**Q.** And the TGI (UACC-62 melanoma)?
**A.** 10200 nM

**Q.** And the GI50 (UO-31 renal)?
**A.** 580 nM

**Q.** What about the TGI (UO-31 renal) of the same compound?
**A.** 24400 nM
